Data: patent US20230024283A1, “HERBICIDAL COMPOUNDS” (SYNGENTA CROP PROTECTION AG, priority 2020, published 2023)

Tests used:
Assay in all cases: Post-emergence herbicidal glasshouse test
Assay type in all cases: in vivo
Conditions in all cases: post-emergence spray, evaluated after 13 days, five-point scale
[1] = system: Amaranthus retoflexus (AMARE)
Experimental: (§1) Seeds of a variety of test species are sown in standard soil in pots (Ipomoea hederacea (IPOHE), Abutilon theophrasti (ABUTH), Amaranthus retoflexus (AMARE), Echinochloa crus-galli (ECHCG), Setaria faberi (SETFA)). After 8 days cultivation under controlled conditions in a glasshouse (at 24/16° C., day/night; 14 hours light; 65% humidity), the plants are sprayed with an aqueous spray solution derived from the formulation of the technical active ingredient in acetone / water (50:50) solution containing 0.5% Tween 20 (polyoxyethelyene sorbitan monolaurate, CAS RN 9005-64-5). Compounds are applied at 1000 g/ha unless otherwise stated. The test plants are then grown in a glasshouse under controlled conditions in a glasshouse (at 24/16° C., day/night; 14 hours light; 65% humidity) and watered twice daily. After 13 days the test is evaluated for the percentage damage caused to the plant. The biological activities are shown in the following table on a five-point scale (5=81-100%; 4=61-80%; 3=41-60%; 2=21-40%; 1=0-20%).

[2] = system: Ipomoea hederacea (IPOHE)
Experimental: as §1

[3] = system: Echinochloa crus-galli (ECHCG)
Experimental: as §1

[4] = system: Setaria faberi (SETFA)
Experimental: as §1

[5] = system: Abutilon theophrasti (ABUTH)
Experimental: as §1

| Compound | percentage damage caused to the plant, AMARE ([1]; 1000 g/ha) | percentage damage caused to the plant, IPOHE ([2]; 1000 g/ha) | percentage damage caused to the plant, ECHCG ([3]; 1000 g/ha) | percentage damage caused to the plant, SETFA ([4]; 1000 g/ha) | percentage damage caused to the plant, ABUTH ([5]; 1000 g/ha) | percentage damage caused to the plant, AMARE ([1]; applied at 500 gai/ha) | percentage damage caused to the plant, IPOHE ([2]; applied at 500 gai/ha) | percentage damage caused to the plant, ECHCG ([3]; applied at 500 gai/ha) | percentage damage caused to the plant, SETFA ([4]; applied at 500 gai/ha) | percentage damage caused to the plant, ABUTH ([5]; applied at 500 gai/ha) |
| --- | --- | --- | --- | --- | --- | --- | --- | --- | --- | --- |
| N#Cc1cc(OC(F)(F)F)c(O)c(-c2cccc(F)c2)c1 [Compound 1.002] | 5 (5=81-100%) | 5 (5=81-100%) | 3 (3=41-60%) | 2 (2=21-40%) | 4 (4=61-80%) | – | – | – | – | – |
| N#Cc1cc(Br)c(O)c(-c2ccccc2)c1 [Compound 1.047] | 5 (5=81-100%) | 3 (3=41-60%) | 1 (1=0-20%) | 2 (2=21-40%) | 5 (5=81-100%) | – | – | – | – | – |
| N#Cc1cc(-c2cc(F)cc(Cl)c2)c(O)c(C(F)(F)F)c1 [Compound 1.148] | – | – | – | – | – | 3 (3=41-60%) | 4 (4=61-80%) | 1 (1=0-20%) | 1 (1=0-20%) | 1 (1=0-20%) |
| N#Cc1cc(Br)c(O)c(-c2cccc(Cl)c2)c1 [Compound 1.054] | 5 (5=81-100%) | 2 (2=21-40%) | 3 (3=41-60%) | 2 (2=21-40%) | 5 (5=81-100%) | – | – | – | – | – |
| N#Cc1cncc(-c2cc(C#N)cc(Br)c2O)c1 [Compound 1.067] | 1 (1=0-20%) | 2 (2=21-40%) | 2 (2=21-40%) | 2 (2=21-40%) | 3 (3=41-60%) | – | – | – | – | – |
| N#Cc1cc(-c2ccc(OC(F)(F)F)cc2)c(O)c(C(F)(F)F)c1 [Compound 1.151] | 5 (5=81-100%) | 3 (3=41-60%) | 1 (1=0-20%) | 1 (1=0-20%) | 1 (1=0-20%) | – | – | – | – | – |
| N#Cc1cc(Cl)c(O)c(-c2cccc(F)c2)c1 [Compound 1.004] | 5 (5=81-100%) | 1 (1=0-20%) | 3 (3=41-60%) | 3 (3=41-60%) | 5 (5=81-100%) | – | – | – | – | – |
| N#Cc1cc(Br)c(O)c(-c2cncnc2)c1 [Compound 1.044] | 5 (5=81-100%) | 1 (1=0-20%) | 2 (2=21-40%) | 3 (3=41-60%) | 5 (5=81-100%) | – | – | – | – | – |
| N#Cc1cc(-c2cccc(OC(F)(F)F)c2)c(O)c(C(F)(F)F)c1 [Compound 1.165] | 3 (3=41-60%) | 4 (4=61-80%) | 1 (1=0-20%) | 1 (1=0-20%) | 1 (1=0-20%) | – | – | – | – | – |
| N#Cc1cc(Br)c(O)c(-c2cccc(Br)c2)c1 [Compound 1.061] | 5 (5=81-100%) | 3 (3=41-60%) | 1 (1=0-20%) | 1 (1=0-20%) | 3 (3=41-60%) | – | – | – | – | – |
| N#Cc1cc(Br)c(O)c(-c2ccc(F)cc2)c1 [Compound 1.048] | 5 (5=81-100%) | 2 (2=21-40%) | 2 (2=21-40%) | 2 (2=21-40%) | 5 (5=81-100%) | – | – | – | – | – |
| N#Cc1cccc(-c2cc(C#N)cc(Br)c2O)c1 [Compound 1.053] | 5 (5=81-100%) | 3 (3=41-60%) | 1 (1=0-20%) | 1 (1=0-20%) | 2 (2=21-40%) | – | – | – | – | – |
